Laboratory results taken from patent US20210322443A1 (MAPREG, priority 2015, published 2021).

Key:
[1] = biological target: T1, human progesterone receptor(PR) (Homo sapiens, UniProt P06401); test: Progesterone receptor agonist transactivation (MMTV-luciferase) in transfected HEK293T cells; assay type: cell-based; conditions: 24 hours, increasing amounts, FIG. 1
T1 construct: expressed in transfected cells; host or cells: HEK293T
T1 sequence (P06401 1-933): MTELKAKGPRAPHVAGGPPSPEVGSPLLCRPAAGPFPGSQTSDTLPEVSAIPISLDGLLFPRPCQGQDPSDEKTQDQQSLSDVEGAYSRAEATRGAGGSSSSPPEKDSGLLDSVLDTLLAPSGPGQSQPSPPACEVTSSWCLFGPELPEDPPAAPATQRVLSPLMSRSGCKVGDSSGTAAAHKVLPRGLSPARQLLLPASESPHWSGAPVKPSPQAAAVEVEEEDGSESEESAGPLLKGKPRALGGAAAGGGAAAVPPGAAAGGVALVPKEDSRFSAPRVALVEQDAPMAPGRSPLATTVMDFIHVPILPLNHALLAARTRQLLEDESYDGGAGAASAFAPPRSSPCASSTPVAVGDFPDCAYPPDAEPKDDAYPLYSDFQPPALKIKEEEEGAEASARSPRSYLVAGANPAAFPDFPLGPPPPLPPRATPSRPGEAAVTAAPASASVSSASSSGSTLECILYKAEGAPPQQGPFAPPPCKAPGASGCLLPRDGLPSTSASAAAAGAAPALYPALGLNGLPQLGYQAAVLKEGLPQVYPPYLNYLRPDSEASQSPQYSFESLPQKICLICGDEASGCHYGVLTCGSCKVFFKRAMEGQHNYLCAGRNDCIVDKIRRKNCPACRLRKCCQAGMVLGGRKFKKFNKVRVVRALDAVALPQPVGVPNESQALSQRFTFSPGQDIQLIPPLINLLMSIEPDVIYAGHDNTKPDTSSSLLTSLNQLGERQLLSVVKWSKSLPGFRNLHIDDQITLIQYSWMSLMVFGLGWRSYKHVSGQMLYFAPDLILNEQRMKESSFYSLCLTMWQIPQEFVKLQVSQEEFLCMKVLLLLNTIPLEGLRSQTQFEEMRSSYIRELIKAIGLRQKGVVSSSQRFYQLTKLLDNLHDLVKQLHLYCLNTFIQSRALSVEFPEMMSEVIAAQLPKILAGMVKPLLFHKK
Experimental: The main experimental setting used is the following: HEK293T cells were transiently transfected, using calcium phosphate precipitation technology, with expression vectors pSG5hPR (which permits expression of human progesterone receptor(PR)), pFC31-luc (contains the luciferase gene under the control of the MMTV promoter, which is in turn activated by binding of a progestin to progesterone receptor) and pcbetagal (which permits expression of betagalactosidase), and cultured during 24 hours with increasing amounts of various compositions: • 1. […] Test of progesterone receptor […] activity: transfected cells were cultured with progesterone (1 nM) and increasing amounts of RU486 (a well-known progesterone receptor antagonist) or 3-methoxy-pregnenolone. • With this setting, a compound with progesterone receptor antagonist activity competes with progesterone for the occupation of progesterone receptor and results in a progressive loss of transactivation activity when the amount of this compound is increased compared to progesterone.

[2] = Blood parameters before and after MAP4343 treatment; assay type: in vivo, Wistar rats; conditions: dependent and non-dependent rats, pre/post treatment, 10 mg/kg sub-cutaneously, FIGS. 4 to 17
Experimental: Blood samples were obtained before and after completion of the treatment with MAP4343 using retro-orbital sampling. Blood, serum and plasma were collected and analyzed using standard procedures to evaluate blood count panel, blood urea nitrogen, cholesterol, creatinine, T3, T4 and protein electrophoresis.
Data were analyzed by appropriate mixed factorial ANOVA, followed Newman Keuls post hoc tests

[3] = biological target: Oppioid μ (Homo sapiens, UniProt P35372); test: CNS receptor binding assay; conditions: [3H] DAMGO, Human recombinant (HEK-293 cells), read-out: % Inhibition of control specific binding
Sequence of Oppioid μ (P35372 whole entry): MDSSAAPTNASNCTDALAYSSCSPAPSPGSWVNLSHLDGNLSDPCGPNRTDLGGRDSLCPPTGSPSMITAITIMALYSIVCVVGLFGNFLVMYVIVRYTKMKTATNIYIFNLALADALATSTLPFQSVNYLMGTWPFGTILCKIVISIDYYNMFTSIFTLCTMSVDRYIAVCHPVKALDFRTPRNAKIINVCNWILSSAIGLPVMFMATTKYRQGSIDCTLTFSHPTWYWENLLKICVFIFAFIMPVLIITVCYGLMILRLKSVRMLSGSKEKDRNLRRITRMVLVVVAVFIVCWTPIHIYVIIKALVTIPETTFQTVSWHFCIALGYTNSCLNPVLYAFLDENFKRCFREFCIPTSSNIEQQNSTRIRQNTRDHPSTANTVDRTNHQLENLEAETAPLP

[4] = biological target: Noradrenergic β2 (Homo sapiens, UniProt P07550); test: CNS receptor binding assay; conditions: read-out: % Inhibition of control specific binding
Sequence of Noradrenergic β2 (P07550 whole entry): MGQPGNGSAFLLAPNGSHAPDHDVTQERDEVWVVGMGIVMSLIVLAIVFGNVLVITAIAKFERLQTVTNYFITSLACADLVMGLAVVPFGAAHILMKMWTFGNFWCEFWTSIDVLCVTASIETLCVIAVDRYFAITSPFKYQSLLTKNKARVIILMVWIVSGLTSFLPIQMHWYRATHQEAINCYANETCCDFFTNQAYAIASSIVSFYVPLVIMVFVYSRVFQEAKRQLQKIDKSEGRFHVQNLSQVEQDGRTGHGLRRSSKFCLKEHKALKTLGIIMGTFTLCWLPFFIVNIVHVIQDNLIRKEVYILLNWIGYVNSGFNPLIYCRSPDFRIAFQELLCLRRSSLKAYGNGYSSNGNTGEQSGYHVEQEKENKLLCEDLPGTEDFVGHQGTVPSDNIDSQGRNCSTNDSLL

[5] = biological target: Dopaminergic D5 (Homo sapiens, UniProt P21918); test: CNS receptor binding assay; conditions: read-out: % Inhibition of control specific binding
Sequence of Dopaminergic D5 (P21918 whole entry): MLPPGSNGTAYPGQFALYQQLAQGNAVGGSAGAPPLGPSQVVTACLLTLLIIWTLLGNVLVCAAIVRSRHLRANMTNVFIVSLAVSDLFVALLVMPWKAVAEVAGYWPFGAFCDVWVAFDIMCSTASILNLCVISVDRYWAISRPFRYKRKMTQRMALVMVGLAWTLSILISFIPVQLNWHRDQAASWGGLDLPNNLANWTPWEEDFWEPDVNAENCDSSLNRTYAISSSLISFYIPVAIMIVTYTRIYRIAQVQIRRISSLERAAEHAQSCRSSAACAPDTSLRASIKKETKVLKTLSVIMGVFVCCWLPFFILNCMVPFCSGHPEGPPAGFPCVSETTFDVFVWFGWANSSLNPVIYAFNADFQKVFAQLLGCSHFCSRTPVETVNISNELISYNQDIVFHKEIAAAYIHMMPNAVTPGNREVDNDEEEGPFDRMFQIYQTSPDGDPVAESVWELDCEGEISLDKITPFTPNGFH

[6] = biological target: Dopaminergic D4.4 (Homo sapiens, UniProt P21917); test: CNS receptor binding assay; conditions: read-out: % Inhibition of control specific binding
Sequence of Dopaminergic D4.4 (P21917 whole entry): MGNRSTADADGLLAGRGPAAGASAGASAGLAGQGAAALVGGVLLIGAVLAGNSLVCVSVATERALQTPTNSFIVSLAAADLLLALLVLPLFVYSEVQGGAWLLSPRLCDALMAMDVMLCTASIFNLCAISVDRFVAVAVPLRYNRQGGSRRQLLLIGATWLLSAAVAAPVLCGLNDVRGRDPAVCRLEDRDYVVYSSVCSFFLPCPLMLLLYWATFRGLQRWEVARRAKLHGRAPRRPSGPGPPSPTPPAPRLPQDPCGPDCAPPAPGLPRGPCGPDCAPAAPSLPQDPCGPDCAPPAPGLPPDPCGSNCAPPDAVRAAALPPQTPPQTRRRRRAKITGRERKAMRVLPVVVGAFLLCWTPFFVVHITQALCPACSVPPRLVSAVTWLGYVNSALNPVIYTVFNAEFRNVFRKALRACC

[7] = biological target: Serotoninergic 5-HT2A (Homo sapiens, UniProt P28223); test: CNS receptor binding assay; conditions: [3H] ketanserin, Human recombinant (HEK-293 cells), read-out: % Inhibition of control specific binding
Sequence of Serotoninergic 5-HT2A (P28223 whole entry): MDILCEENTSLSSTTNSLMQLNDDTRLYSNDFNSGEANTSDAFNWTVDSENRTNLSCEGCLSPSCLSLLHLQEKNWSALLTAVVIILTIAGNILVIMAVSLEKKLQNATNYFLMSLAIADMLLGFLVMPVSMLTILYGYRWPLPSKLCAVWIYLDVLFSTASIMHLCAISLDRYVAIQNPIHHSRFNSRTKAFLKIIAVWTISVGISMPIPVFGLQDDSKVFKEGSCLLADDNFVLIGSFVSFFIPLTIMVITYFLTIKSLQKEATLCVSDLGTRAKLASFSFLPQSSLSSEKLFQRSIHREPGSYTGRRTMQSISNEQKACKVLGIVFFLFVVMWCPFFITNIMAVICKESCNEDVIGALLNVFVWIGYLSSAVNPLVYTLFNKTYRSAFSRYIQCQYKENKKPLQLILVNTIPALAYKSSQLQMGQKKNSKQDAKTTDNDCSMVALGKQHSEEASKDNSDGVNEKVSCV

[8] = biological target: Muscarinic (Cholinergic) M4 (Homo sapiens, UniProt P08173); test: CNS receptor binding assay; conditions: [3H] 4-DAMP, Human recombinant (CHO cells), read-out: % Inhibition of control specific binding
Sequence of Muscarinic (Cholinergic) M4 (P08173 whole entry): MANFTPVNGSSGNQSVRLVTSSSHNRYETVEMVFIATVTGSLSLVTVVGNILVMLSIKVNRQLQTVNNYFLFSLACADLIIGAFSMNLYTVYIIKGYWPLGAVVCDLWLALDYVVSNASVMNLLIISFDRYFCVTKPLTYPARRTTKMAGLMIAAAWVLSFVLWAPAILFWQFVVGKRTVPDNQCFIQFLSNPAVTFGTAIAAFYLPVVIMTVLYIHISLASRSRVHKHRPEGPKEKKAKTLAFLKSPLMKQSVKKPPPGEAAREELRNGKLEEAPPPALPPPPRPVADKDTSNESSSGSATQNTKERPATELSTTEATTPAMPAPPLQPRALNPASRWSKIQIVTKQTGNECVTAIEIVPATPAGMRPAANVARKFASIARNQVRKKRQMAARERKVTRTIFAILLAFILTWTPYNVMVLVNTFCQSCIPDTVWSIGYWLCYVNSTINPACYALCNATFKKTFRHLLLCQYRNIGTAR

[9] = biological target: Serotoninergic 5-HT3 (Homo sapiens, UniProt P46098); test: CNS receptor binding assay; conditions: read-out: % Inhibition of control specific binding
Sequence of Serotoninergic 5-HT3 (P46098 24-478): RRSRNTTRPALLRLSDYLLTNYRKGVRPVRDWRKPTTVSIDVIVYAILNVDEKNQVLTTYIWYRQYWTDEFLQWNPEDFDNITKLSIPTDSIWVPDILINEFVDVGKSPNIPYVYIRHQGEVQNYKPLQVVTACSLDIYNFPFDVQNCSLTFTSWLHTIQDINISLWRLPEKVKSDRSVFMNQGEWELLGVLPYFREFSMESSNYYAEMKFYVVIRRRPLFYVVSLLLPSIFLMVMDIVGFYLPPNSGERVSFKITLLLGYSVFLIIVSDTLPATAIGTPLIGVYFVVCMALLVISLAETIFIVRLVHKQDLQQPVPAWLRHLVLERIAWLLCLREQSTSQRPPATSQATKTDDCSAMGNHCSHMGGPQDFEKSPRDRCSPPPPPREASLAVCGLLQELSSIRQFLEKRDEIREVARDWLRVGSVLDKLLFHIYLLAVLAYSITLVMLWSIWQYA

[10] = biological target: Serotoninergic 5-HT5A (Homo sapiens, UniProt P47898); test: CNS receptor binding assay; conditions: read-out: % Inhibition of control specific binding
Sequence of Serotoninergic 5-HT5A (P47898 whole entry): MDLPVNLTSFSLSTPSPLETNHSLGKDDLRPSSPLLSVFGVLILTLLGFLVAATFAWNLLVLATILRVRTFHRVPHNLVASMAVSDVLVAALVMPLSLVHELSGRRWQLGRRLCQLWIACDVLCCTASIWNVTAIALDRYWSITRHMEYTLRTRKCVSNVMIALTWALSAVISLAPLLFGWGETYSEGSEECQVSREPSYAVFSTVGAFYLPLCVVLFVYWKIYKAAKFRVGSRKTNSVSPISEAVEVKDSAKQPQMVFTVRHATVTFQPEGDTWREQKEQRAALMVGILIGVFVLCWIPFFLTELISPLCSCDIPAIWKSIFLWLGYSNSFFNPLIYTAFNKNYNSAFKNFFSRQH

CO[C@H]1CC[C@@]2(C)C(=CC[C@H]3[C@@H]4CC[C@H](C(C)=O)[C@@]4(C)CC[C@@H]32)C1 [MAP4343, 3β-methoxy-pregna-5-ene-20-one]
progesterone receptor agonist activity (transactivation, luciferase expression) [1]: does not have progesterone receptor agonist activity | effect on blood parameters (blood count panel, blood urea nitrogen, cholesterol, creatinine, T3, T4, protein electrophoresis) [2]: no significant effects of dependence or treatment on any of the blood parameters investigated | inhibition at 10 µM [3]: 0% | inhibition at 10 µM [4]: -4% | inhibition at 10 µM [5]: -7% | inhibition at 10 µM [6]: 6% | inhibition at 10 µM [7]: 1% | inhibition at 10 µM [8]: 20% | inhibition at 10 µM [9]: 10% | inhibition at 10 µM [10]: -5%
